Assay results from patent publication US20210251981A1, “SOLID FORMS OF BERBERINE URSODEOXYCHOLATE AND COMPOSITIONS AND METHODS THEREOF” (SHENZHEN HIGHTIDE BIOPHARMACEUTICAL, LTD., priority 2017, published 2021).
Where two headings read alike, the source gives them in different places.

Tests used:
[1] = Hygroscopicity evaluation by Dynamic Vapor Sorption (DVS); assay type: physicochemical; conditions: for water uptake: DVS
Protocol: DVS was measured via a SMS (Surface Measurement Systems) DVS Intrinsic.
Dynamic Vapor Sorption (DVS) isotherm plot of Form A of BBR-UDCA was collected at 25° C. with the various humidity, 60% RH-95% RH-0% RH-95% RH (60% RH was the ambient humidity). As the DVS plot shown, a step-like weight loss was observed between 10% RH and 20% RH.
To investigate the hygroscopicity of Form D of BBR-UDCA, DVS isotherm plot of Form D was collected at 25° C. between 0 and 95% RH.

[2] = Equilibrium aqueous solubility; assay type: physicochemical
Protocol: (§1) Agilent 1260/1100 HPLC was utilized and detailed chromatographic conditions for purity and solubility measurement are listed in Table 5.
About 5 mg of each crystal type of solid (Form A of BBR-UDCA and Form D of BBR-UDCA, respectively) was weighed in separate 3-mL bottle, suspended into 1 mL of water, slurried (1000 rpm) at RT for 24 hours, and then centrifuged at 10000 rpm for 3 minutes. The resulting residual solids were characterized by XRPD and supernatant was measured by HPLC-DAD/ELSD. Due to the poor UV absorption of UDCA, DAD was used as the detector only for BBR and ELSD was used for both BBR and UDCA. […] The reason of the deviation from 1:1 may be that after HTD 1801 dissolving in water, a small amount of disproportionation occurred and it was hardly detected by XRPD due to its limited amount.

[3] = 1-Month stability evaluation (XRPD and HPLC after storage); assay type: physicochemical; conditions: for Purity (Area %): HPLC; for Crystal Form: XRPD
Text: (§2) XRPD patterns were collected on a PANalytical X-ray powder diffractometer fitted with an automatic sample changer, a theta-theta goniometer, automatic beam divergence slit and a PSD Vantec-1 detector. The X-ray tube voltage and amperage were set to 45 kV and 40 mA respectively. The diffractometer was aligned and a calibration check performed using a corundum reference material on the day of data collection. Data were collected and analyzed by the software Data Viewer.
as §1
Samples of Form A of BBR-UDCA, Form D of BBR-UDCA and BBR-UDCA (mixed crystals without quality control on crystal forms) were stored 25° C./60% RH (sealed) and 40° C./75% RH (sealed) for one month.

[4] = Accelerated stability evaluation (XRPD and HPLC after storage); assay type: physicochemical; conditions: for Purity (Area %): HPLC; for Form: XRPD; for decrease of HPLC purity: HPLC-DAD, under all three conditions
Text: as §2, §1
To evaluate the physical and chemical stability of Form A of BBR-UDCA and Form D of BBR-UDCA, samples were stored at 80° C. (sealed) for 24 hours, 25° C./60% RH (open) and 40° C./75% RH (open) for one week. […] The physical stability of Form A was better than Form D based on the 1-week stability results at 25° C./60% RH (open) and 40° C./75% RH (open).

[5] = air exposure
[6] = water, RT, 24 hours, ELSD as detector
[7] = 1 Month, 25° C./60% RH (sealed)
[8] = 1 Month, 40° C./75% RH (sealed)
[9] = 1 week, 25° C./60% RH (open), * = degree of crystallinity decreased
[10] = 1 week, 40° C./75% RH (open), * = degree of crystallinity decreased

Row | SMILES | water uptake ([1]; 25° C./80% RH) | Purity/Initial purity (%) [3, 7] | Purity (Area %) [3, 7] | Crystal Form [3, 7] | Purity/Initial purity (%) [3, 8] | Purity (Area %) [3, 8] | Crystal Form [3, 8] | Purity (Area %) ([3]; Initial) | Purity/Initial purity (%) ([4]; 1 week, 25° C./60% RH (open)) | Purity (Area %) ([4]; 1 week, 25° C./60% RH (open)) | Form [4, 9] | Purity/Initial purity (%) ([4]; 1 week, 40° C./75% RH (open)) | Purity (Area %) ([4]; 1 week, 40° C./75% RH (open)) | Form [4, 10] | Purity/Initial purity (%) ([4]; 24 hours, 80° C. (sealed)) | Purity (Area %) ([4]; 24 hours, 80° C. (sealed)) | Form ([4]; 24 hours, 80° C. (sealed)) | decrease of HPLC purity [4] | Purity (Area %) ([4]; Initial) | further results
1 | COc1ccc2cc3[n+](cc2c1OC)CCc1cc2c(cc1-3)OCO2.C[C@H](CCC(=O)[O-])[C@H]1CC[C@H]2[C@@H]3[C@@H](O)C[C@@H]4C[C@H](O)CC[C@]4(C)[C@H]3CC[C@]12C [Form A, berberine ursodeoxycholate] | 9.9% | 99.8% | 99.3 Area % | Form A | 99.9% | 99.4 Area % | Form A | 99.5 Area % | 99.9% | 99.4 Area % | Form A | 99.8% | 99.4 Area % | Form A | 99.8% | 99.3 Area % | Form A | no HPLC purity decrease | 99.5 Area % | crystal-form change after DVS (XRPD) ([1]; 25° C., 60% RH-95% RH-0% RH-95% RH): no crystal-form change; Form of residual solid ([2]; water, RT, 24 hours slurry, XRPD, listed as Type A): Type A; Solubility of BBR ([2]; water, RT, 24 hours, DAD as detector): 350 µg/mL; Solubility of BBR [2, 6]: 330 µg/mL; Solubility of UDCA [2, 6]: 420 µg/mL
2 | COc1ccc2cc3[n+](cc2c1OC)CCc1cc2c(cc1-3)OCO2.C[C@H](CCC(=O)[O-])[C@H]1CC[C@H]2[C@@H]3[C@@H](O)C[C@@H]4C[C@H](O)CC[C@]4(C)[C@H]3CC[C@]12C [Form D, berberine ursodeoxycholate] | 4.1% | 97.6% | 97.2 Area % | Form D | 95.1% | 94.7 Area % | Form D | 99.6 Area % | 99.3% | 98.9 Area % | Form D* | 98.3% | 97.9 Area % | Form D* | 99.5% | 99.0 Area % | Form D | 0.5-1.7 area % | 99.6 Area % | behaviour in high humidity (DVS) ([1]; 25° C., over 90% RH): deliquesced in high humidity; water uptake ([1]; 25° C., 95% RH): 24.5%; Solubility of UDCA [2]: 520 µg/mL; molar ratio (BBR:UDCA) [2]: 0.93:1; crystal-form change (XRPD) ([3]; 25° C./60% RH (sealed) and 40° C./75% RH (sealed), one month): No crystal-form change; crystal-form change (XRPD) ([4]; all three conditions: 80° C. sealed 24 hours, 25° C./60% RH open and 40° C./75% RH open one week): no crystal-form change
3 | COc1ccc2cc3[n+](cc2c1OC)CCc1cc2c(cc1-3)OCO2.C[C@H](CCC(=O)[O-])[C@H]1CC[C@H]2[C@@H]3[C@@H](O)C[C@@H]4C[C@H](O)CC[C@]4(C)[C@H]3CC[C@]12C [Form J, berberine ursodeoxycholate] |  |  |  |  |  |  |  |  |  |  |  |  |  |  |  |  |  |  |  | form conversion [5]: converts to Form A
4 | COc1ccc2cc3[n+](cc2c1OC)CCc1cc2c(cc1-3)OCO2.C[C@H](CCC(=O)[O-])[C@H]1CC[C@H]2[C@@H]3[C@@H](O)C[C@@H]4C[C@H](O)CC[C@]4(C)[C@H]3CC[C@]12C [Mixed crystal, berberine ursodeoxycholate] |  | 91.7% | 90.8 Area % | Mixed | 89.6% | 88.7 Area % | Mixed | 99.0 Area % |  |  |  |  |  |  |  |  |  |  |  | 
